Read-outs that look alike come from different tables or passages of the source.
Key:
Assay type in all cases: cell-based, human
[1] = MTT assay, cytotoxicity test on HaCaT cells; conditions: human, hacat cells, percentage of untreated cells (NT), read-out: Cell viability
Method: (§1) Cells vitality is measured as absorbance after MTT treatment. Values are expressed as absorbance percentage over untreated (NT) cells; 1 mg/ml SDS is used as positive control; the boxes show the three highest non-toxic concentrations of each compound.
(§2) Cell lines of immortalized human keratinocyes (HaCaT cells) were grown at 37 °C, 5% CO2 in DMEM culture medium, added with 1% non-essential aminoacids and 10% FBS. The cells were plated in 96-wells multi-well plates at 10^4 cells/well, in 10% FBS -DMEM. The day after, the culture medium was removed and substituted with 100 µL of complete medium with 1% FBS; then, an MTT assay was carried out after treating cells with the single ingredients prepared in Example 1.
(§3) As positive control of toxicity, sodium dodecyl sulfate (SDS) was used, at the concentration of 1 mg/ml.
(§4) The cells were incubated for 24 hours at 37°C and 5% CO2.
(§5) At the end of each incubation, the reagent 3-(4,5-dimethylthiazol-2-yl)-2,5-diphenyltetrazolium bromide (MTT) was added to each well, at the final concentration of 0.45 mg/mL. The plates were then incubated for an additional 2 hours, at 37 °C and 5% CO2.
(§6) At the end of the incubation, the crystals of reduced MTT were solubilized by removing the medium and adding 100 µL of dimethyl sulfoxide (DMSO) to each well.
(§7) Finally, the absorbance at 595 nm of each sample was measured, using an Infinite M NANO+ (Tecan) plate reader.
(§8) The cell viability following treatment with the different substances was analyzed. Cell viability is expressed as percentage of absorbance at 595 nm of untreated cells (NT).

IL-6 = test: ELISA of IL-6 production in TNFα-inflamed HaCaT cells; conditions: TNFα 20 ng/ml overnight, then 24 hours of treatment
Method: Cell lines of immortalized human keratinocytes (HaCaT cells) were grown at 37 °C, 5% CO2 in DMEM culture medium, added with 1% non-essential aminoacids and 10% FBS. The cells were plated in 48-wells multi-well plates at 5*10^4 cells/ml, in 10% FBS DMEM. The day after, the culture medium was removed and substituted with 500 µL of complete medium without FBS and at the same time an inflammatory process was induced by treatment with TNFα 20 ng/ml, maintained over/night. This stimulus induces an increase in production of these cytokines compared to controls not receiving TNFα.
An experimental group of untreated cells was included, as a negative control of inflammation.
The following day, the inflamed cells were treated with each ingredient prepared in Example 1, at the highest non-toxic concentrations identified in Example 2. • Cannabidiol (CBD): 0.031 (w/v) • GPI lysine (GPI): 0.31 (w/v) • lactoferrin hydrolysate (LAC): 1 (w/v). […]
The dosage of the pro-inflammatory cytokine IL-6 (interleukin 6) was performed on 100 µL of each of the stored aliquots, following the kit protocol provided by the manufacturer. […] The anti-inflammatory effect of the compounds and compositions testes is expressed as a percentage of interleukin's production, with respect to inflamed cells (TNFα-treated) not subjected to anti-inflammatory treatment.

HaCaT cells = test: MTT assay, cytotoxicity test on HaCaT cells; conditions: 24 hours
Method: as §1, §2, §3, §4, §5, §6, §7, §8

Compound | viability at 24 h ([1]; concentration 0.063 % w/v) [%] | viability at 24 h ([1]; concentrations from 0.031 to 0.004 % w/v) [%] | activity at 0.03 % (IL-6; Homo sapiens, 0.03% (w/v)) [%] | Cell viability (HaCaT cells; percentage of absorbance at 595 nm of untreated cells (NT), concentration 0.0313 % v/v) | Cell viability (HaCaT cells; percentage of untreated cells (NT), concentrations of 0.0156 - 0.001 % v/v) | IL-6 production (% vs TNFα) Mean (IL-6; 0.031% (v/v)) [% vs TNFα]
C=C(C)[C@@H]1CCC(C)=C[C@H]1c1c(O)cc(CCCCC)cc1O [CBD, cannabidiol] | ~50 | ~80 | 99 |  |  | 
O=P(O)(OC[C@H](O)CO)OC1[C@H](O)[C@H](O)C(O)[C@H](O)[C@H]1O (stereo partly drawn) [GPI Lysine, glycerophosphoinositol] |  |  |  | Above 50% | around 80% | 96

Reference: EP4523699A1, “ANTI-INFLAMMATORY DERMATOLOGICAL COMPOSITION COMPRISING GLYCEROPHOSPHOINOSITOL, A LACTOFERRIN HYDROLYSATE AND A CANNABINOID, IN PARTICULAR FOR TREATING SEBORRHEIC DERMATITIS” (FB Dermo srl, priority 2023, dated 2025)
